Experimental data as given in patent publication US10259712B2, “Method of stabilizing compounds in water, water compositions thereby, and articles containing said water compositions” (priority 2015, dated 2019).
Where two headings read alike, the source gives them in different places.

Columns and labels:
[1] = Accelerated ageing of chlorine dioxide in aqueous carriers, 75 days at 50° C.; assay type: physicochemical
Description: A series of dilutions were set up and aged for 75 days at 50° C., (approximately two years of stability of this solution) that creates chlorine dioxide. A solution of chlorine dioxide at a concentration of 0.4 ppm was separately added to dioxytetrahydride gas-infused water and a second sample in tap water. The samples were aged for 75 days at 50° C. Prior to testing the concentration of chlorine dioxide of each sample, a control of chlorine dioxide at a concentration of 0.4 ppm in water was prepared. The concentration of chlorine dioxide measured in the two samples after aging, was 0.4 ppm for the dioxytetrahydride gas-infused water and 0.2 ppm for tap water.
The same protocol was performed on 0.2 ppm concentration of chlorine dioxide and the test results were 0.2 ppm for the dioxytetrahydride gas-infused water and 0.0 ppm in tap water.

[2] = initial 50 ppm
Excerpt: Peroxide test strips supplied by Indigo® Instruments, Part #33815-P100 (referred as “peroxide test strips” or “test strip” herein) were used to determine the amount of hydrogen peroxide in either distilled water or in water infused with dioxytetrahydride gas (referred as “dioxytetrahydride gas-infused water” or “ultra-pure polarized water” herein). Test Strips are capable of measuring peroxide concentrations between 1 and 100 ppm (parts per million). A peroxide test strip was first submerged into 3% water solution of hydrogen peroxide obtained from a drugstore for home use.
A peroxide test strip was submerged into a clear PET-1 bottle (0.5 liter) of distilled water produced by Crystal Springs and another clear PET-1 bottle (0.5 liter) of dioxytetrahydride gas-infused water manufactured by AquaNew, LLC, Sarasota, Fla., respectively. The water produced by AquaNew is highly purified resulting from at least six (6) stages of treatment to obtain on or about 0.3 ppm of Total Dissolved Solids (pharmaceutical-grade water). […] Ten (10) drops of peroxide were added into each sample bottle and a test strip was dipped into each bottle and each bottle was immediately recapped. […] Both bottles with closures were left on a shelf in open light conditions under climate controlled conditions with no direct sunlight.
After two weeks, a test strip was dipped into each bottle and the bottle was immediately recapped. […] The two bottles with closures were placed back onto the shelf.
After four (4) months, another test strip was dipped into each bottle and the bottles were immediately recapped.

[3] = 58° C.
Description: Continuous experiments on the relative stabilization of hydrogen peroxide with different aqueous carriers, that is, types of water, including dioxytetrahydride gas-infused water, were carried out.
Very low concentrations of hydrogen peroxide (1.2 weight %) was added to the various aqueous carriers and measured for percent absorption by potassium permanganate titration.
The samples were tested on day 1, 20, 27 and 34. The tests were accelerated in aging when the temperature of each water sample was maintained at 58° C., approximating close to two years of stabilization.

[4] = in dioxytetrahydride gas-infused water, throughout the 34 days, initial 1.2 weight %

## [O][Cl+][O-] [chlorine dioxide]
[1]; in dioxytetrahydride gas-infused water, initial 0.2 ppm
  concentration of chlorine dioxide after aging: 0.2 ppm
[1]; in dioxytetrahydride gas-infused water, initial 0.4 ppm
  concentration of chlorine dioxide after aging: 0.4 ppm
[1]; in tap water, initial 0.2 ppm
  concentration of chlorine dioxide after aging: 0.0 ppm
[1]; in tap water, initial 0.4 ppm
  concentration of chlorine dioxide after aging: 0.2 ppm

## OO [hydrogen peroxide]
[2]; in dioxytetrahydride gas-infused water, after four (4) months
  peroxide concentration: 50 ppm
[2]; in dioxytetrahydride gas-infused water, after two weeks, clear PET-1 bottle on shelf in open light
  peroxide concentration: 50 ppm
[2]; in distilled water, after four (4) months
  peroxide concentration: 30 ppm
[2]; in distilled water, after two weeks, clear PET-1 bottle on shelf in open light
  peroxide concentration: 30 ppm
[3]; [4]
  hydrogen peroxide concentration: 1.2%
  percent absorption: ~100%
[3]; in tap water, day 20, initial 1.2%
  hydrogen peroxide concentration: 0.4%
[3]; in tap water, day 34, initial 1.2%
  hydrogen peroxide concentration: below 0.2%
